Experiments:
JAK3 kinase = JAK3 kinase (Homo sapiens (Human), UniProt P52333); experiment: JAK3 Homogeneous Time Resolved Fluorescence (HTRF) Assay; assay type: binding; settings: for IC50: competition binding with fluorescein-labeled ATP competitive probe; for Ratio of JAK3 IC50 to IRAK4 IC50: selectivity for IRAK4 over JAK3
In short: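 TR-FRET competition binding: 1 nM His- or GST-tagged JAK3 with 0.2 nM Tb-labeled anti-tag antibody, fluorescein ATP-competitive probe at its Kd, and compound for one hour. FRET read at 495/520 nm, normalized to no-compound signal. IC50 from 11 concentrations, 4-parameter logistic fit.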

IRAK4 = IRAK4 (Homo sapiens (Human), UniProt Q9NWZ3); experiment: IRAK4 Inhibition Assay; assay type: biochemical; settings: ATP 500 μM; IRAK4 0.6 nM; 60 min room temperature
Sequence of IRAK4 (Q9NWZ3 whole entry, species assumed): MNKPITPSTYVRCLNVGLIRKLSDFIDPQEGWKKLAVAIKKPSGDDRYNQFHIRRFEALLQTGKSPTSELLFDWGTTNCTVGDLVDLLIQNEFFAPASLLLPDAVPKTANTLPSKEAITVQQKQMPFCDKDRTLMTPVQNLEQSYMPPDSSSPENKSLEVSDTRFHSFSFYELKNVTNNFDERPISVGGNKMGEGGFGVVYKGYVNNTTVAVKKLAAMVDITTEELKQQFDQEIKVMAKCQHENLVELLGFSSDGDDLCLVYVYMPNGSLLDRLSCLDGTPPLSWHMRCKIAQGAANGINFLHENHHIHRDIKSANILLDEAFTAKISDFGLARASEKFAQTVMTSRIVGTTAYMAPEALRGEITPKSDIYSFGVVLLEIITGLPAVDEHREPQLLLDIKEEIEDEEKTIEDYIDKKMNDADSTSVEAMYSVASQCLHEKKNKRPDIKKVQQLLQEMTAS
In short: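 Reaction started by combining IRAK4 with substrates and compound, run 60 min at room temperature and stopped with 35 mM EDTA. Fluorescent substrate and phosphorylated product were separated electrophoretically on a Caliper LabChip; inhibition normalized to no-enzyme (100%) and vehicle-only (0%) controls.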

Sequence of JAK3 kinase (P52333 whole entry): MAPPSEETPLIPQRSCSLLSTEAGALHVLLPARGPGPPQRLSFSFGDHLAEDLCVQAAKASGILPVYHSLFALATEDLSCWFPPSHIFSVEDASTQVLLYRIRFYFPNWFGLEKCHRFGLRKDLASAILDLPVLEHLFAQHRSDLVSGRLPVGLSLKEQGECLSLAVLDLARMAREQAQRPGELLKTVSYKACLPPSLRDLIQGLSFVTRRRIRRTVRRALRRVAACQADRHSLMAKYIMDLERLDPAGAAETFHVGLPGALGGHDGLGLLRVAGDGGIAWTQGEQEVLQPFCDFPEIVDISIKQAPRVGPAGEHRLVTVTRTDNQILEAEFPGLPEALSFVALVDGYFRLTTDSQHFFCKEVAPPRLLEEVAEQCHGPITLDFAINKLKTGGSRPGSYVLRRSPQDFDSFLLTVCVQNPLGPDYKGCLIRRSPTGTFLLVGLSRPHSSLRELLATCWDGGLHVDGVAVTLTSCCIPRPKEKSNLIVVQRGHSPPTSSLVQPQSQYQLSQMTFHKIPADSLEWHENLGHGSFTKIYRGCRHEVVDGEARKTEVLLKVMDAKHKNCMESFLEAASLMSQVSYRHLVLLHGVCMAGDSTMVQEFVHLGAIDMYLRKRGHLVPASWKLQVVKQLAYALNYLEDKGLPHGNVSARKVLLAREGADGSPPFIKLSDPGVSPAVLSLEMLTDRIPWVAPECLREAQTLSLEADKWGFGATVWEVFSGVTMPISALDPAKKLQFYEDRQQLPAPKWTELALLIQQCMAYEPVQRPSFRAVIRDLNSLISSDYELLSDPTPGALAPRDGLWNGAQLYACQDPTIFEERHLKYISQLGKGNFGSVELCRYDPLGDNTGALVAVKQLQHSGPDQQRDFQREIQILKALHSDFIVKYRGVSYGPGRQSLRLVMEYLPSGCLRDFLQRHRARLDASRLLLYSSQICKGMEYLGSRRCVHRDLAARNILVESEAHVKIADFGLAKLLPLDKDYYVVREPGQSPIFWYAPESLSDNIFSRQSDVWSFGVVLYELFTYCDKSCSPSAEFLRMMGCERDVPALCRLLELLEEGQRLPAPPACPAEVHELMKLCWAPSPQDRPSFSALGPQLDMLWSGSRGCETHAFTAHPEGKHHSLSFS

Row | Compound | IC50 (JAK3 kinase) | Ratio of JAK3 IC50 to IRAK4 IC50 (JAK3 kinase) | IC50 (IRAK4)
1 | CC(C)Nc1c(C(=O)N[C@H]2C[C@H](C(C)(C)O)C2)cnn2cc(-c3ccc(F)nc3)nc12 [Example 114, 2-(6-fluoropyridin-3-yl)-N-((1r,3r)-3-(2-hydroxypropan-2-yl)cyclobutyl)-8-(isopropylamino)imidazo[1,2-b]pyridazine-7-carboxamide] | > 50000 nM | >60 | 840 nM
2 | CC(C)Nc1c(C(=O)N[C@H]2CC[C@H](O)CC2)cnn2cc(-c3cccnc3)cc12 [Example 58, N-((1r,4r)-4-hydroxycyclohexyl)-4-(isopropylamino)-6-(pyridin-3-yl)pyrrolo[1,2-b]pyridazine-3-carboxamide] | > 50000 nM | >926 | 54 nM
3 | CC(=O)N[C@H]1CC[C@H](NC(=O)c2cnn3cc(-c4ccc(C(N)=O)cc4)cc3c2NC(C)C)CC1 [Example 74, N-((1r,4r)-4-acetamidocyclohexyl)-6-(4-carbamoylphenyl)-4-(isopropylamino)pyrrolo[1,2-b] pyridazine-3-carboxamide] | > 50000 nM | >521 | 96 nM
4 | CC(C)Nc1c(C(=O)NC[C@@H](F)C(C)(C)O)cnn2cc(-c3ccc(F)cn3)cc12 [Example 18, (R)—N-(2-fluoro-3-hydroxy-3-methylbutyl)-6-(5-fluoropyridin-2-yl)-4-(isopropylamino)pyrrolo[1,2-b]pyridazine-3-carboxamide] | > 50000 nM | >4167 | 12 nM
5 | CC(C)Nc1c(C(=O)NC[C@@H](F)C(C)(C)O)cnn2cc(-c3ccncc3F)cc12 [Example 47, (R)—N-(2-fluoro-3-hydroxy-3-methylbutyl)-6-(3-fluoropyridin-4-yl)-4-(isopropylamino)pyrrolo[1,2-b]pyridazine-3-carboxamide] | > 50000 nM | >14286 | 3.5 nM
6 | Cc1ccc(-c2cc3ncc(C(=O)NC[C@@H](F)C(C)(C)O)c(NC(C)C)n3n2)cn1 [Example 131, (R)—N-(2-fluoro-3-hydroxy-3-methylbutyl)-7-(isopropylamino)-2-(6-methylpyridin-3-yl)pyrazolo[1,5-a]pyrimidine-6-carboxamide] | > 50000 nM | >2500 | 20 nM
7 | COc1cc(-c2cc3c(NC4CCOCC4)c(C(=O)NC[C@@H](F)C(C)(C)O)cnn3c2)ccn1 [Example 11, (R)—N-(2-fluoro-3-hydroxy-3-methylbutyl)-6-(2-methoxypyridin-4-yl)-4-((tetrahydro-2H-pyran-4-yl)amino)pyrrolo[1,2-b]pyridazine-3-carboxamide] | > 50000 nM | >581 | 86 nM
8 | CC(C)Nc1c(C(=O)NC[C@@H](F)C(C)(C)O)cnn2cc(-c3cnoc3)cc12 [Example 44, (R)—N-(2-fluoro-3-hydroxy-3-methylbutyl)-4-(isopropylamino)-6-(isoxazol-4-yl)pyrrolo[1,2-b]pyridazine-3-carboxamide] | > 50000 nM | >33 | 1500 nM
9 | CC(C)(O)CCNc1c(C(=O)NC[C@@H](F)C(C)(C)O)cnn2cc(-c3cccnc3F)cc12 [Example 22, (R)—N-(2-fluoro-3-hydroxy-3-methylbutyl)-6-(2-fluoropyridin-3-yl)-4-((3-hydroxy-3-methylbutyl)amino)pyrrolo[1,2-b]pyridazine-3-carboxamide] | > 50000 nM | >278 | 180 nM
10 | CC(C)Nc1c(C(=O)NC[C@@H](F)C(C)(C)O)cnn2cc(-c3ccc(F)cc3)cc12 [Example 13, (R)—N-(2-fluoro-3-hydroxy-3-methylbutyl)-6-(4-fluorophenyl)-4-(isopropylamino)pyrrolo[1,2-b]pyridazine-3-carboxamide] | > 50000 nM | >1724 | 29 nM
11 | Cc1cnccc1-c1cc2c(NC(C)C)c(C(=O)NCCC(C)(C)O)cnn2c1 [Example 72, N-(3-hydroxy-3-methylbutyl)-4-(isopropylamino)-6-(3-methylpyridin-4-yl)pyrrolo[1,2-b]pyridazine-3-carboxamide] | > 50000 nM | >714 | 70 nM
12 | CNC(=O)c1cncc(-c2cc3ncc(C(=O)NC[C@@H](F)C(C)(C)O)c(NC(C)C)n3n2)c1 [Example 156, (R)—N-(2-fluoro-3-hydroxy-3-methylbutyl)-7-(isopropylamino)-2-(5-(methylcarbamoyl)pyridin-3-yl)pyrazolo[1,5-a]pyrimidine-6-carboxamide] | > 10000 nM | >11 | 910 nM
13 | CC(C)Nc1c(C(=O)NC[C@@H](F)C(C)(C)O)cnn2cc(-c3ccnc(N4CCOCC4)c3F)cc12 [Example 53, (R)-6-(3-fluoro-2-morpholinopyridin-4-yl)-N-(2-fluoro-3-hydroxy-3-methylbutyl)-4-(isopropylamino)pyrrolo[1,2-b]pyridazine-3-carboxamide] | ~50000 nM | ~500 | 100 nM
14 | CC(C)Nc1c(C(=O)NC[C@@H](F)C(C)(C)O)cnc2cc(-c3cccnc3)nn12 [Example 115, (R)—N-(2-fluoro-3-hydroxy-3-methylbutyl)-7-(isopropylamino)-2-(pyridin-3-yl) pyrazolo[1,5-a]pyrimidine-6-carboxamide] | > 10000 nM | >400 | 25 nM
15 | CC(C)Nc1c(C(=O)NC[C@@H](F)C(C)(C)O)cnc2cc(-c3ccc(C#N)cc3)nn12 [Example 141, (R)-2-(4-cyanophenyl)-N-(2-fluoro-3-hydroxy-3-methylbutyl)-7-(isopropylamino)pyrazolo[1,5-a]pyrimidine-6-carboxamide] | > 50000 nM | >4545 | 11 nM
16 | CC(C)(O)[C@H](F)CNC(=O)c1cnn2cc(-c3ccc(C#N)c(F)c3)cc2c1NC1CCOCC1 [Example 12, (R)-6-(4-cyano-3-fluorophenyl)-N-(2-fluoro-3-hydroxy-3-methylbutyl)-4-((tetrahydro-2H-pyran-4-yl)amino)pyrrolo[1,2-b]pyridazine-3-carboxamide] | > 50000 nM | >200 | 250 nM
17 | CC(=O)N[C@H]1CC[C@H](NC(=O)c2cnn3cc(-c4ccc(F)cn4)cc3c2NC(C)C)CC1 [Example 82, N-((1r,4r)-4-acetamidocyclohexyl)-6-(5-fluoropyridin-2-yl)-4-(isopropylamino)pyrrolo[1,2-b]pyridazine-3-carboxamide] | > 50000 nM | >1471 | 34 nM
18 | CC(C)Nc1c(C(=O)NC[C@@H](F)C(C)(C)O)cnn2cc(-c3ccncc3)nc12 [Example 100, (R)—N-(2-fluoro-3-hydroxy-3-methylbutyl)-8-(isopropylamino)-2-(pyridin-4-yl)imidazo[1,2-b]pyridazine-7-carboxamide] | > 50000 nM | >3333 | 15 nM
19 | Nc1c(C(=O)NCCN2CCOCC2)cnn2cc(-c3ccncc3F)cc12 [Example 79, 4-amino-6-(3-fluoropyridin-4-yl)-N-(2-morpholinoethyl)pyrrolo[1,2-b]pyridazine-3-carboxamide] | > 50000 nM | >455 | 110 nM
20 | Cc1cc(F)ncc1-c1cc2c(NC(C)C)c(C(=O)NC3CCN(S(C)(=O)=O)CC3)cnn2c1 [Example 86, 6-(6-fluoro-4-methylpyridin-3-yl)-4-(isopropylamino)-N-(1-(methylsulfonyl)piperidin-4-yl)pyrrolo[1,2-b]pyridazine-3-carboxamide] | > 50000 nM | >1087 | 46 nM
21 | CC(C)(O)CCNc1c(C(=O)NC[C@@H](F)C(C)(C)O)cnn2cc(-c3ccc(C#N)nc3)cc12 [Example 27, (R)-6-(6-cyanopyridin-3-yl)-N-(2-fluoro-3-hydroxy-3-methylbutyl)-4-((3-hydroxy-3-methylbutyl)amino)pyrrolo[1,2-b]pyridazine-3-carboxamide] | > 50000 nM | >208 | 240 nM
22 | CC(C)Nc1c(C(=O)NC[C@@H](F)C(C)(C)O)cnn2cc(Nc3ncc(C#N)cc3Cl)cc12 [Example 42, (R)-6-((3-chloro-5-cyanopyridin-2-yl)amino)-N-(2-fluoro-3-hydroxy-3-methylbutyl)-4-(isopropylamino)pyrrolo[1,2-b]pyridazine-3-carboxamide] | > 50000 nM | >1923 | 26 nM
23 | CC(C)Nc1c(C(=O)NC[C@@H](F)C(C)(C)O)cnn2cc(-c3cnc(N)nc3)cc12 [Example 15, (R)-6-(2-aminopyrimidin-5-yl)-N-(2-fluoro-3-hydroxy-3-methylbutyl)-4-(isopropylamino) pyrrolo[1,2-b]pyridazine-3-carboxamide] | > 50000 nM | >2273 | 22 nM
24 | CC(C)Nc1c(C(=O)NC[C@@H](F)C(C)(C)O)cnn2cc(-c3ccc(F)cc3)nc12 [Example 104, (R)—N-(2-fluoro-3-hydroxy-3-methylbutyl)-2-(4-fluorophenyl)-8-(isopropylamino)imidazo[1,2-b]pyridazine-7-carboxamide] | > 10000 nM | >256 | 39 nM
25 | CC(C)Nc1c(C(=O)NC[C@@H](F)C(C)(C)O)cnn2cc(-n3ncc4cncnc43)cc12 [Example 37, (R)—N-(2-fluoro-3-hydroxy-3-methylbutyl)-4-(isopropylamino)-6-(1H-pyrazolo[3,4-d]pyrimidin-1-yl)pyrrolo[1,2-b]pyridazine-3-carboxamide] | > 50000 nM | >13158 | 3.8 nM
